Measured values reported in publication PMC4607367, “Gedunin and Azadiradione: Human Pancreatic Alpha-Amylase Inhibiting Limonoids from Neem (Azadirachta indica) as Anti-Diabetic Agents” (PLoS ONE, 2015).

Tests used:
[1] = biological target: T1, Porcine pancreatic α-amylase (PPA) (Sus scrofa, UniProt P00690); test: Porcine pancreatic α-amylase inhibition assay, chromogenic DNSA method (primary screening); type: biochemical; conditions: starch 1% w/v, pH 6.9, 37°C
T1 construct: purchased SRL, Mumbai, India
T1 sequence (P00690 16-511): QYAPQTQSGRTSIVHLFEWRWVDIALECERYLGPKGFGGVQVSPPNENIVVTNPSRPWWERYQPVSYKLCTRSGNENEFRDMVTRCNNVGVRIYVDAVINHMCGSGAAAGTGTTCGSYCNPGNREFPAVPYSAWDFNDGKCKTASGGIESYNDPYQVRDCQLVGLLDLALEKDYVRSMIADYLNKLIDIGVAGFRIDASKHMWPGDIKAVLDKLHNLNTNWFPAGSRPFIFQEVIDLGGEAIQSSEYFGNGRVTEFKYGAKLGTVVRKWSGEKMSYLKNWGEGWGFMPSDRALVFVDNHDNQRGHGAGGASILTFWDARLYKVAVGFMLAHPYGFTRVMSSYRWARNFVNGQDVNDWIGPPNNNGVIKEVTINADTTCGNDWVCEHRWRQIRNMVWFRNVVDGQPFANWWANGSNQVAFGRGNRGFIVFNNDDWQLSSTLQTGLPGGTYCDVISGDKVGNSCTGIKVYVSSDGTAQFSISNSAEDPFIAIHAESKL
Description: The inhibition assay was performed using the chromogenic DNSA method. PPA was used for preliminary screening of α-amylase inhibitors. […] Moreover a high degree gene sequence similarity (~ 90%) exists between human salivary α-amylase (HSA) and PPA as reported by (Buisson et al 1987). Brayer et al (1995) have reported 97% primary sequence similarity between human salivary and human pancreatic α-amylases and a 70% structural similarity between PPA and HPA [11]. Thus, a high degree of similarity between PPA and HPA allows us to use it as the enzyme for screening inhibitors.
In brief, the total assay mixture consisting of 0.02 M sodium phosphate buffer, pH6.9, (containing 6 mM NaCl), 0.2–0.25 U of PPA and inhibitors (13.8–214.3 μM) in DMSO was incubated at 37°C for 10 min. After pre-incubation, the substrate starch (1%, w/v) solution was added to the reaction mixture and further incubated for 15 min. The control PPA (0.21 U) without any inhibitor represented 100% enzyme activity. One unit of enzyme activity is defined as the amount of enzyme required to release one micromole of maltose from starch/maltopentaose per min under the assay conditions. The other quantifiers calculated were: % Relative enzyme activity = (enzyme activity of test/enzyme activity of control)*100. % inhibition = (100 − % relative enzyme activity).
The IC50 values were determined from plots of percent inhibition versus inhibitor concentration and calculated by logarithmic regression analysis. To eliminate the absorbance produced by the compound, appropriate controls were included. The known PPA/HPA inhibitor acarbose was used as a positive control at a concentration range of 10–50 μM.

[2] = biological target: T2, secreted pancreatic α-amylase of AR42J cells (Rattus norvegicus, UniProt P00689); test: Bioactivity: inhibition of secreted pancreatic α-amylase in dexamethasone-induced AR42J cells, incl. starch load test (DNSA); type: cell-based; conditions: AR42J
T2 construct: host or cells: AR42J rat pancreatic acinar cells, induced with 10 nM dexamethasone
T2 sequence (P00689 16-508): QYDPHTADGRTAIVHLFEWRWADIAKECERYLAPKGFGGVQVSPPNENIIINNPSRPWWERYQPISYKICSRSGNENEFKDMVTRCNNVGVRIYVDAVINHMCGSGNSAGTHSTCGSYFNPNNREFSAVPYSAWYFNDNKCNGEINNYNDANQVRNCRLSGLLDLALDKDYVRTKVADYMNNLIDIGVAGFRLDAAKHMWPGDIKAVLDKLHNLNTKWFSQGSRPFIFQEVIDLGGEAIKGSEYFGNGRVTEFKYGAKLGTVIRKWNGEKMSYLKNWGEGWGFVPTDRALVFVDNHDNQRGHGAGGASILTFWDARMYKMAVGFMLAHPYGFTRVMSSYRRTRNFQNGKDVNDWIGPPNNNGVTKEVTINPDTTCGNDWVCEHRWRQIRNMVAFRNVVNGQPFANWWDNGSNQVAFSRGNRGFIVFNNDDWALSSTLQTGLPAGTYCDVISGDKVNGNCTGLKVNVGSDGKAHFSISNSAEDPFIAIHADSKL
Excerpt: Appropriate medium and DMSO controls were simultaneously set up.

[3] = biological target: T3, Human pancreatic α-amylase (HPA) (Homo sapiens, UniProt P04746); test: Human pancreatic α-amylase inhibition and stoichiometry (DNSA); type: biochemical; conditions: percentage inhibition versus molar ratio of HPA and inhibitor; HPA 14.85 μM
T3 construct: purchased Sigma Aldrich, USA
T3 sequence (P04746 16-511): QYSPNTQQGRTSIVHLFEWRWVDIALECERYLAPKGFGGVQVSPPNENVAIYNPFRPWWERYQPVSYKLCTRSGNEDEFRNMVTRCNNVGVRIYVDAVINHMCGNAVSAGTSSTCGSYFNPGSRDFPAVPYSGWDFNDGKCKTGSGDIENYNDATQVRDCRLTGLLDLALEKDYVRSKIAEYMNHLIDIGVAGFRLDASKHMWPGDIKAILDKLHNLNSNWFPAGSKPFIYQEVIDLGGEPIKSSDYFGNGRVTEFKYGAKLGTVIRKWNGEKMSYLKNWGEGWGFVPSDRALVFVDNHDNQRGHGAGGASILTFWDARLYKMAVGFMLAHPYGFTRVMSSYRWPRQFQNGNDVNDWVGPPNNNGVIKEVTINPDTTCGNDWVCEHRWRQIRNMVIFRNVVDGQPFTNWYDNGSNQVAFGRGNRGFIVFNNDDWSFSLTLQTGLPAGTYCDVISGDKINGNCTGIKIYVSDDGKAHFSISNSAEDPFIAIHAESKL
Excerpt: The control HPA (0.25 U) without inhibitors represented 100% enzyme activity.

[4] = biological target: T3, Human pancreatic α-amylase (HPA); test: HPA inhibition kinetics (Michaelis-Menten, Lineweaver-Burk, secondary plots); type: biochemical
Description: The mode of inhibition of HPA by the lead inhibitors azadiradione and gedunin were determined using Michaelis-Menton and Lineweaver-Burk equations. Starch (1–5mg ml^-1) and maltopentaose (0.05–0.4mM) were incubated with inhibitors-HPA for 10 and 2.5 min, respectively and the residual enzyme activity determined by DNSA method for starch and Nelson-Somogyi’s method for maltopentaose.The inhibitor constants(K i) were determined on the basis of mode of inhibition.

[5] = biological target: T3, Human pancreatic α-amylase (HPA); test: Ligand binding to HPA by fluorescence quenching titration, thermodynamic parameters
Description: Ligand binding studies using fluorescence measurements of HPA were carried as described in our earlier report. […] Non-linear and linear regression analyses were used to analyze the data.
The thermodynamic parameters, association constants (K a), dissociation constant (K d) and Gibbs free energy (ΔG°) of binding for azadiradione and gedunin were determined at various temperatures 25°C to 60°C by fluorescence quenching studies.

[6] = tested on: AR42J rat pancreatic acinar cells; conditions: 24 h, 3.5 μM
Description: (§1) Cells were seeded at 2×10^4 cells well^-1 onto 96 wells culture dish. […] Appropriate medium and DMSO controls were simultaneously set up. […] At the end of 24 h incubation period the culture media was removed from the samples and fresh culture media (100 μl) containing 20 μl of MTT tetrazolium bromide (5 mg ml^-1) added and incubated for 3 h at 37°C. Metabolically active cells reduce MTT to insoluble purple formazan dye crystals, which were dissolved by addition of 300 μl DMSO solution at the end of the incubation period and quantitated at 550 nm [34].

[7] = Cytotoxicity in AR42J cell line (MTT); conditions: rat, AR42J pancreatic acinar cells
Description: as §1

[8] = tested on: AR42J rat pancreatic acinar cells; test: Cytotoxicity in AR42J cell line (MTT); conditions: AR42J; azadiradione 3.5 μM, gedunin 3.3 μM (Fig 3)
Description: as §1

[9] = linear van't Hoff plot, 298–333 K

**Q.** For `CC(=O)O[C@@H]1C[C@H]2C(C)(C)C(=O)C=C[C@]2(C)[C@H]2CC[C@]3(C)C(=CC(=O)[C@H]3c3ccoc3)[C@@]21C` [azadiradione], which IC50 [1] is on record?
**A.** 138 µM

**Q.** And the “Secreted amylase inhibition in starch load test” value ([2]; 0.5% (w/v) starch, up to two hours)?
**A.** 22.9%

**Q.** And the “Amylase inhibition at the cytotoxic IC50 concentration” value ([2]; 24 h, at 11.1, 13.4 and 4.1 μM respectively)?
**A.** 70.1%

**Q.** What about the inhibition at 3.5 µM ([2]; AR-42J, 3.5 μM) of the same molecule?
**A.** 41.8%

**Q.** What about the “Stoichiometry of HPA inactivation” value [3] of the same molecule?
**A.** 0.66

**Q.** And the Ki ([4]; maltopentaose as substrate, secondary plots)?
**A.** 42.2 µM

**Q.** What about the “Apparent K i ′” value ([4]; starch as substrate, secondary plots) of the same molecule?
**A.** 75.8 µM

**Q.** What about the “Mode of HPA inhibition” value ([4]; substrates starch and maltopentaose, Lineweaver-Burk) of the same molecule?
**A.** mixed

**Q.** What about the “-ΔG°” value ([5]; 298 K) of the same molecule?
**A.** 21.25 k J mol^-1

**Q.** And the K a ([5]; 298 K)?
**A.** 4300 M⁻¹

**Q.** And the Kd ([5]; 298 K)?
**A.** 200 ± 3 µM

**Q.** And the “-ΔG°” value ([5]; 303 K)?
**A.** 20.88 k J mol^-1

**Q.** And the K a ([5]; 303 K)?
**A.** 3900 M⁻¹

**Q.** And the Kd ([5]; 303 K)?
**A.** 200 ± 1 µM

**Q.** What about the “-ΔG°” value ([5]; 308 K) of the same molecule?
**A.** 20.27 k J mol^-1

**Q.** And the K a ([5]; 308 K)?
**A.** 2700 M⁻¹

**Q.** What about the Kd ([5]; 308 K) of the same molecule?
**A.** 300 ± 5 µM

**Q.** What about the “-ΔG°” value ([5]; 313 K) of the same molecule?
**A.** 20.29 k J mol^-1

**Q.** What about the K a ([5]; 313 K) of the same molecule?
**A.** 2400 M⁻¹

**Q.** And the Kd ([5]; 313 K)?
**A.** 400 ± 7 µM

**Q.** What about the “-ΔG°” value ([5]; 323K) of the same molecule?
**A.** 19.87 k J mol^-1

**Q.** And the K a ([5]; 323K)?
**A.** 1600 M⁻¹

**Q.** And the Kd ([5]; 323K)?
**A.** 600 ± 2 µM

**Q.** And the “-ΔG°” value ([5]; 333K)?
**A.** 18.54 k J mol^-1

**Q.** What about the K a ([5]; 333K) of the same molecule?
**A.** 810 M⁻¹

**Q.** And the Kd ([5]; 333K)?
**A.** 1200 ± 30 µM

**Q.** What about the “Maximal quenching of intrinsic HPA fluorescence” value ([5]; 350 nm, azadiradione 3.9–118 μM, gedunin 2.0–51.86 μM) of the same molecule?
**A.** 33%

**Q.** What about the “Maximum ΔG° of binding” value ([5]; calculated from binding constants, maximal affinity at 298 K) of the same molecule?
**A.** -5.079 kcal/mol

**Q.** What about the “Enthalpy (ΔHvH)” value [5, 9] of the same molecule?
**A.** -10 kcal/mol

**Q.** And the “Entropy (-ΔS)” value [5, 9]?
**A.** 70.09 J mol^-1K^-1

**Q.** And the Cell death [6]?
**A.** 8.6%

**Q.** What about the IC50 at 24 h [7] of the same molecule?
**A.** 11.1 µM

**Q.** What about the “Cell morphology versus controls” value [8] of the same molecule?
**A.** no morphological change
